# Experiments:
# HIV-IIIb = test: Test A: Antiviral Assay in MT4 Cells; type: cell-based, HIV-1; conditions: for % inhibition at 0.2 μM: percent inhibition of virus-induced cell killing at 0.2 μM drug concentration; for % inhibition at 0.2 μM / % inhibition at 2 μM: from dose response curve, MT-4 cells, HIV-IIIb, 5 days, values above 100 normalized to 100; for % inhibition at 2 μM: percent inhibition of virus-induced cell killing at 2 μM drug concentration; for inhibition at 0.2 µM / inhibition at 2 µM: Human immunodeficiency virus 1, IIIB, MT4, 120 h; for inhibition at 0.2 µM: read-out: % inhibition at 0.2 μM; for inhibition at 2 µM: read-out: % inhibition at 2 μM
# Experimental: Test A: Antiviral Assay in MT4 Cells
# MT-4 cells were next mixed with HIV-IIIb at an m.o.i of 0.003 for 1 hour, after which time 35 μL of virus/cell mixture (2000 cells) was immediately added to each well containing 40 μL of diluted compound. The plates were then incubated at 37° C. for 5 days. […] Cell lysis was carried out by incubating at room temperature for 10 min and then chemiluminescence was read.
# uninfected MT-4 cells = test: Test B: Cytotoxicity Assay; type: cell-based; conditions: same protocol as Test A, 5 days
# In short: (§1)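 Uninfected MT-4 cells (2000 per well) incubated with diluted compound at 37° C. for 5 days, following the antiviral protocol without HIV-IIIb.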
# [1] = Test B: Cytotoxicity Assay; type: cell-based; conditions: human, uninfected MT-4 cells, same protocol as Test A
# In short: as §1
Structure (SMILES),% inhibition at 0.2 μM (HIV-IIIb),% inhibition at 2 μM (HIV-IIIb),CC50 (uninfected MT-4 cells),inhibition at 0.2 µM (HIV-IIIb),inhibition at 2 µM (HIV-IIIb),CC50 at 5 days [1]
"CC(C)(C)C#Cc1ccc(-c2cccn3c(NS(C)(=O)=O)nnc23)c([C@H](Cc2cc(F)cc(F)c2)NC(=O)Cn2nc(C(F)F)c3c2C(F)(F)[C@@H]2C[C@H]32)n1 [Compound 134, 2-((3bS,4aR)-3-(difluoromethyl)-5,5-difluoro-3b,4,4a,5-tetrahydro-1H-cyclopropa[3,4]cyclopenta[1,2-c]pyrazol-1-yl)-N—((S)-2-(3,5-difluorophenyl)-1-(6-(3,3-dimethylbut-1-yn-1-yl)-3-(3-(methylsulfonamido)-[1,2,4]triazolo[4,3-a]pyridin-8-yl)pyridin-2-yl)ethyl)acetamide]",82%,83%,28 µM,,,
"Cn1nc(NS(C)(=O)=O)c2c(Cl)ccc(-c3ccc(-c4ccccn4)nc3[C@H](Cc3cc(F)cc(F)c3)NC(=O)Cn3nc(C(F)(F)F)c4c3C(F)(F)[C@@H]3C[C@H]43)c21 [Compound 172, N—((S)-1-(5-(4-chloro-1-methyl-3-(methylsulfonamido)-1H-indazol-7-yl)-[2,2′-bipyridin]-6-yl)-2-(3,5-difluorophenyl)ethyl)-2-((3b-S,4aR)-5,5-difluoro-3-(trifluoromethyl)-3b,4,4a,5-tetrahydro-1H-cyclopropa[3,4]cyclopenta[1,2-c]pyrazol-1-yl)acetamide]",,,0.061 µM,,,
"Cc1ccc(-c2ccc(C#CC(C)(C)O)nc2[C@H](Cc2cc(F)cc(F)c2)NC(=O)Cn2nc(C(F)F)c3c2C(F)(F)[C@@H]2C[C@H]32)c2c1c(NS(N)(=O)=O)nn2C [Compound 71, 2-((3b-S,4aR)-3-(difluoromethyl)-5,5-difluoro-3b,4,4a,5-tetrahydro-1H-cyclopropa[3,4]cyclopenta[1,2-c]pyrazol-1-yl)-N—((S)-2-(3,5-difluorophenyl)-1-(3-(1,4-dimethyl-3-(sulfamoylamino)-1H-indazol-7-yl)-6-(3-hydroxy-3-methylbut-1-yn-1-yl)pyridin-2-yl)ethyl)acetamide]",87%,87%,9.51 µM,,,
"CC(C)(O)C#Cc1ccc(-c2cccc3c(N)n[nH]c23)c([C@H](Cc2cc(F)cc(F)c2)NC(=O)Cn2nc(C(F)(F)F)c3c2C(F)(F)[C@@H]2C[C@H]32)n1 [Compound 29B, N—((S)-1-(3-(3-amino-1H-indazol-7-yl)-6-(3-hydroxy-3-methylbut-1-yn-1-yl)pyridin-2-yl)-2-(3,5-difluorophenyl)ethyl)-2-((3b-S,4aR)-5,5-difluoro-3-(trifluoromethyl)-3b,4,4a,5-tetrahydro-1H-cyclopropa[3,4]cyclopenta[1,2-c]pyrazol-1-yl)acetamide]",80%,81%,15.3 µM,,,
"CCC(O)C#Cc1ccc(-c2ccc(Cl)c3c(NS(C)(=O)=O)nn(C)c23)c([C@H](Cc2cc(F)cc(F)c2)NC(=O)Cn2nc(C(F)(F)F)c3c2C(F)(F)[C@@H]2C[C@H]32)n1 (stereo partly drawn) [Compound 145, N-((1S)-1-(3-(4-chloro-1-methyl-3-(methylsulfonamido)-1H-indazol-7-yl)-6-(3-hydroxypent-1-yn-1-yl)pyridin-2-yl)-2-(3,5-difluorophenyl)ethyl)-2-((3b-S,4aR)-5,5-difluoro-3-(trifluoromethyl)-3b,4,4a,5-tetrahydro-1H-cyclopropa[3,4]cyclopenta[1,2-c]pyrazol-1-yl)acetamide]",99%,99%,8.69 µM,,,
"Cn1nc(NS(C)(=O)=O)c2cccc(-c3ccc(C#C[C@@H](N)CO)nc3[C@H](Cc3cc(F)cc(F)c3)NC(=O)Cn3nc(C(F)(F)F)c4c3C(F)(F)[C@@H]3C[C@H]43)c21 [Compound 59B, N—((S)-1-(6-((R)-3-amino-4-hydroxybut-1-yn-1-yl)-3-(1-methyl-3-(methylsulfonamido)-1H-indazol-7-yl)pyridin-2-yl)-2-(3,5-difluorophenyl)ethyl)-2-((3b-S,4aR)-5,5-difluoro-3-(trifluoromethyl)-3b,4,4a,5-tetrahydro-1H-cyclopropa[3,4]cyclopenta[1,2-c]pyrazol-1-yl)acetamide]",94%,94%,22.4 µM,,,
"Cn1nccc1-c1ccc(-c2ccc(Cl)c3c(NS(C)(=O)=O)nn(C)c23)c([C@H](Cc2cc(F)cc(F)c2)NC(=O)Cn2nc(C(F)(F)F)c3c2C(F)(F)[C@@H]2C[C@H]32)n1 [Compound 175, N—((S)-1-(3-(4-chloro-1-methyl-3-(methylsulfonamido)-1H-indazol-7-yl)-6-(1-methyl-1H-pyrazol-5-yl)pyridin-2-yl)-2-(3,5-difluorophenyl)ethyl)-2-((3b-S,4aR)-5,5-difluoro-3-(trifluoromethyl)-3b,4,4a,5-tetrahydro-1H-cyclopropa[3,4]cyclopenta[1,2-c]pyrazol-1-yl)acetamide]",,,,95%,95%,> 46.1 µM
"Cn1nc(NC(N)=O)c2c(Cl)ccc(-c3ccc(C#CC(C)(C)O)nc3[C@H](Cc3cc(F)cc(F)c3)NC(=O)Cn3nc(C(F)F)c4c3C(F)(F)[C@@H]3C[C@H]43)c21 [Compound 92, N—((S)-1-(3-(4-chloro-1-methyl-3-ureido-1H-indazol-7-yl)-6-(3-hydroxy-3-methylbut-1-yn-1-yl)pyridin-2-yl)-2-(3,5-difluorophenyl)ethyl)-2-((3bS,4aR)-3-(difluoromethyl)-5,5-difluoro-3b,4,4a,5-tetrahydro-1H-cyclopropa[3,4]cyclopenta[1,2-c]pyrazol-1-yl)acetamide]",,,,100%,100%,6.24 µM
"Cn1nc(NCC(F)F)c2cccc(-c3ccc(C#CC(C)(C)O)nc3[C@H](Cc3cc(F)cc(F)c3)NC(=O)Cn3nc(C(F)F)c4c3C(F)(F)[C@@H]3C[C@H]43)c21 [Compound 74D, N—((S)-1-(3-(3-((2,2-difluoroethyl)amino)-1-methyl-1H-indazol-7-yl)-6-(3-hydroxy-3-methylbut-1-yn-1-yl)pyridin-2-yl)-2-(3,5-difluorophenyl)ethyl)-2-((3b-S,4aR)-3-(difluoromethyl)-5,5-difluoro-3b,4,4a,5-tetrahydro-1H-cyclopropa[3,4]cyclopenta[1,2-c]pyrazol-1-yl)acetamide]",,,,99%,99%,6.91 µM
"CC(C)(O)C#Cc1ccc(-c2cccn3c(C(F)F)nnc23)c([C@H](Cc2cc(F)cc(F)c2)NC(=O)Cn2nc(C(F)F)c3c2C(F)(F)[C@@H]2C[C@H]32)n1 [Compound 138, 2-((3b-S,4aR)-3-(difluoromethyl)-5,5-difluoro-3b,4,4a,5-tetrahydro-1H-cyclopropa[3,4]cyclopenta[1,2-c]pyrazol-1-yl)-N—((S)-1-(3-(3-(difluoromethyl)-[1,2,4]triazolo[4,3-a]pyridin-8-yl)-6-(3-hydroxy-3-methylbut-1-yn-1-yl)pyridin-2-yl)-2-(3,5-difluorophenyl)ethyl)acetamide]",,,,61%,83%,33.4 µM
"CC(C)(C)C#Cc1ccc(-c2ccc(Cl)n3c(N)nnc23)c([C@H](Cc2cc(F)cc(F)c2)NC(=O)Cn2nc(C(F)F)c3c2C(F)(F)[C@@H]2C[C@H]32)n1 [Compound 115C, N—((S)-1-(3-(3-amino-5-chloro-[1,2,4]triazolo[4,3-a]pyridin-8-yl)-6-(3,3-dimethylbut-1-yn-1-yl)pyridin-2-yl)-2-(3,5-difluorophenyl)ethyl)-2-((3b-S,4aR)-3-(difluoromethyl)-5,5-difluoro-3b,4,4a,5-tetrahydro-1H-cyclopropa[3,4]cyclopenta[1,2-c]pyrazol-1-yl)acetamide]",,,,84%,91%,9.31 µM
"CC(C(=O)N[C@@H](Cc1cc(F)cc(F)c1)c1nc(C#CC(C)(C)O)ccc1-c1ccc(Cl)c2c(NS(C)(=O)=O)nn(C)c12)c1ccccc1 (stereo partly drawn) [Compound 195, N—((S)-1-(3-(4-chloro-1-methyl-3-(methylsulfonamido)-1H-indazol-7-yl)-6-(3-hydroxy-3-methylbut-1-yn-1-yl)pyridin-2-yl)-2-(3,5-difluorophenyl)ethyl)-2-phenylpropanamide]",,,,88%,90%,11.2 µM
"Cc1ccc(-c2ccc(C#CC(C)(C)C)nc2[C@H](Cc2cc(F)cc(F)c2)NC(=O)Cn2nc(C(F)F)c3c2C(F)(F)[C@@H]2C[C@H]32)c2nnc(N)n12 [Compound 116A, N—((S)-1-(3-(3-amino-5-methyl-[1,2,4]triazolo[4,3-a]pyridin-8-yl)-6-(3,3-dimethylbut-1-yn-1-yl)pyridin-2-yl)-2-(3,5-difluorophenyl)ethyl)-2-((3b-S,4aR)-3-(difluoromethyl)-5,5-difluoro-3b,4,4a,5-tetrahydro-1H-cyclopropa[3,4]cyclopenta[1,2-c]pyrazol-1-yl)acetamide]",,,,62%,93%,10.5 µM
